Data published in patent publication US11155530B2, “Urea-oxaziridines” (The Regents of the University of California, priority 2018, dated 2021).

Assay: Stability of redox conjugation product-sulfimide
Format: physicochemical
Details: salt form formed from S3 under strong acidic condition (1 N HCl); co-solvent d-MeOD/D2O=1:1; monitored by NMR after 1 h and 18 h
Experimental: The stability of sulfimides were tested by treatment of sulfimides S2 with 5 mM TCEP or treatment of sulfimides S3 with 1 N HCl, 1 N NaOH or 80° C. in co-solvent (d-MeOD/D2O=1:1). The reactions were monitored by NMR after 1 h and 18 h and the reaction conversions were calculated based on NMR data. Sulfimide S3 can be protonated under strong acidic condition to its salt form S4, which is stable in aqueous solution.

stability in aqueous solution: stable
Structure (SMILES): CCNC(=O)N[S+](C)c1ccccc1.[Cl-] (stereo not shown) [Compound S4]
